We go through four compounds from article PMC12300041, “Tricyclic Isatin Derivatives as Anti-Inflammatory Compounds with High Kinase Binding Affinity” (Molecules, 2025).

For data set [1], the system named is proinflammatory cytokine production. Briefly: Multiplex human cytokine ELISA, LPS-stimulated MonoMac-6 cells. Conditions: 10 μM compound, 24 h, versus DMSO-treated control. It counts as cell-based. The source says:
A multiplex human cytokine ELISA kit from Anogen (Mississauga, ON, Canada) was used to evaluate various cytokines (IL-1α, IL-1β, IL-6, GM-CSF, MCP-1, IFN-γ, and TNF) in the supernatants of MonoMac-6 cells.
In general terms: An ELISA detects its analyte on a solid surface through an enzyme-linked reagent.

A short description of data set [2]: Cytotoxicity, CellTiter-Glo. It counts as cell-based, human. To be noted: human, MonoMac-6 cells; 24 h incubation; N.T.: no cytotoxicity at concentrations up to 50 µM.
Data set [3] deals with MonoMac-6 Cells. Briefly: Cytotoxicity, CellTiter-Glo. It counts as cell-based, human. To be noted: 24 h incubation; N.T.: no cytotoxicity at concentrations up to 50 µM.
For data set [4], the target named is T1, DYRK1A (Homo sapiens, UniProt Q13627).
T1 construct: purchased Eurofins Pharma Discovery (KINOMEscan)
Briefly: KINOMEscan. It counts as binding. To be noted: DYRK1A; N.B.: no binding at concentrations up to 30 µM. Here is the method:
(§1) Kinase profiling was performed by KINOMEscan (Eurofins Pharma Discovery, San Diego, CA, USA), using a panel of 423 protein kinases, as described previously. Compounds were submitted for dissociation constant (Kd) determination toward several target kinases using KINOMEscan. […] Binding reactions were performed at room temperature for 1 h, and the fraction of kinase not bound to the test compound was determined by capture with an immobilized affinity ligand and quantified by quantitative polymerase chain reaction. The primary screening at fixed concentrations of the compound was performed in duplicate. For dissociation constant Kd determination, a 12-point half-log dilution series (a maximum concentration of 33 μM) was used.

Data set [5] deals with T2, HIPK1 (Homo sapiens, UniProt Q86Z02).
T2 construct: purchased Eurofins Pharma Discovery (KINOMEscan)
Briefly: KINOMEscan. It counts as binding. Conditions: HIPK1; N.B.: no binding at concentrations up to 30 µM. The method, then: as §1

The target of data set [6] is T3, DAPK3 (Homo sapiens, UniProt O43293).
T3 construct: purchased Eurofins Pharma Discovery (KINOMEscan)
T3 sequence (O43293 whole entry): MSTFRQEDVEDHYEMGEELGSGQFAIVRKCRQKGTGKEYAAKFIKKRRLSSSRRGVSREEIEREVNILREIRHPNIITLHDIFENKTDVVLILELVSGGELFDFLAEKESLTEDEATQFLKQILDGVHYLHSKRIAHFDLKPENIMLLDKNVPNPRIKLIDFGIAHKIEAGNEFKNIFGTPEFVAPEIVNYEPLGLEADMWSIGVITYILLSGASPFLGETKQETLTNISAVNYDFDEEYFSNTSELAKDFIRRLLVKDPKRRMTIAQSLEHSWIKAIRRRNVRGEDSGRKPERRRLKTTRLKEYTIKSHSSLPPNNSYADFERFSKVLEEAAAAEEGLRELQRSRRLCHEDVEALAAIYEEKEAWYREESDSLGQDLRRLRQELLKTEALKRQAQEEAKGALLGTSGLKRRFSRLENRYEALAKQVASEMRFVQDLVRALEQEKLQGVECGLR
Briefly: KINOMEscan. To be noted: DAPK3; N.B.: no binding at concentrations up to 30 µM. It counts as binding. Here is the method: as §1

In data set [7] the target is T4, DAPK2 (Homo sapiens, UniProt Q9UIK4).
T4 construct: purchased Eurofins Pharma Discovery (KINOMEscan)
T4 sequence (Q9UIK4 whole entry): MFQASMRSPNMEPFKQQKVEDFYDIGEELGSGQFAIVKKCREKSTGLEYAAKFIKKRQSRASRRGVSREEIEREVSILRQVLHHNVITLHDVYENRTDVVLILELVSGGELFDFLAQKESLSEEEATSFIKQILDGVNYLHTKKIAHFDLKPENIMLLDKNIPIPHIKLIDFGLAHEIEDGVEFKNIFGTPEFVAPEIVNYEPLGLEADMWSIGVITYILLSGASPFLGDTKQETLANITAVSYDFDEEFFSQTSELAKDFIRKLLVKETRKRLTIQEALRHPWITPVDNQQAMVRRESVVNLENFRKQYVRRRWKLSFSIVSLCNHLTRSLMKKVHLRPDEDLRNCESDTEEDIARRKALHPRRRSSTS
Briefly: KINOMEscan. It counts as binding. Conditions: DAPK2; N.B.: no binding at concentrations up to 30 µM. Here is the method: as §1

The target in data set [8] is T5, DAPK1 (Homo sapiens, UniProt P53355).
T5 construct: purchased Eurofins Pharma Discovery (KINOMEscan)
T5 sequence (P53355 whole entry): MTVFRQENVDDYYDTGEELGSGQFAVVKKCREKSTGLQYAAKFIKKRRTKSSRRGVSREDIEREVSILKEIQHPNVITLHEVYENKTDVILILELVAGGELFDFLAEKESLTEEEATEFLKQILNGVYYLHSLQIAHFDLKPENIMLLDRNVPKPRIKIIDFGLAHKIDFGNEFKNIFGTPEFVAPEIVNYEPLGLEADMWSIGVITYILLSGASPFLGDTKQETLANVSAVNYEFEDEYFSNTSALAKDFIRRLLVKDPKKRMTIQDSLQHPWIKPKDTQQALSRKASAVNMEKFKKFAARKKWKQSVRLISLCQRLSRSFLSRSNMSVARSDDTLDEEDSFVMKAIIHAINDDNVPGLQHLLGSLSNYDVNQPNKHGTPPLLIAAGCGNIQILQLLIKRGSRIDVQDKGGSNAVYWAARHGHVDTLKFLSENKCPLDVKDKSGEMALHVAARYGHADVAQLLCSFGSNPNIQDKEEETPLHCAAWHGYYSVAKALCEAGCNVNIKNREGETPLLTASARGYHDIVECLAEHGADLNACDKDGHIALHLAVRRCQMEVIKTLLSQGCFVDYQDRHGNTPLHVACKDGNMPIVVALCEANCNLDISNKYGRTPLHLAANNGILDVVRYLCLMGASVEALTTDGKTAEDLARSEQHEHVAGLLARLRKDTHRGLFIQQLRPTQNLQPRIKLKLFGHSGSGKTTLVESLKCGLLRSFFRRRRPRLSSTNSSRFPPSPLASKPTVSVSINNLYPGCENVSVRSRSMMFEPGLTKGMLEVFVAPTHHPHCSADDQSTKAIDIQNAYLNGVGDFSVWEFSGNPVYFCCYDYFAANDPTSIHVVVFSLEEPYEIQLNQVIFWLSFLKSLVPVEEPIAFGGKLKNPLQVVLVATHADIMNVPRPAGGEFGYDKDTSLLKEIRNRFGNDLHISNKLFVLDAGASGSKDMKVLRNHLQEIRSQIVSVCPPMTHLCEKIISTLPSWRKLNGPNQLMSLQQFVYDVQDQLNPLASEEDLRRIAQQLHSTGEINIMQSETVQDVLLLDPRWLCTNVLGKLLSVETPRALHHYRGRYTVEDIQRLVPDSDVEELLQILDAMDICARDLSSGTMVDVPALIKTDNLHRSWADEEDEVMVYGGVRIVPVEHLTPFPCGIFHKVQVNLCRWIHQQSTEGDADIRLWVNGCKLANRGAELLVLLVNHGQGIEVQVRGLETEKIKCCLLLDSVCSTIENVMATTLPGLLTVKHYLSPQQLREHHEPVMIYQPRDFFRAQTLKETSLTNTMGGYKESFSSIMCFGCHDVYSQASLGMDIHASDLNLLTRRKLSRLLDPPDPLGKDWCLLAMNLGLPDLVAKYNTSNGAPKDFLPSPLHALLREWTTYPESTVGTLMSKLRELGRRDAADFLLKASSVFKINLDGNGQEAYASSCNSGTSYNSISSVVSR
Briefly: KINOMEscan. It counts as binding. Conditions: DAPK1; N.B.: no binding at concentrations up to 30 µM. Here is the method: as §1

For data set [9], the target named is T6, DYRK1B (Homo sapiens, UniProt Q9Y463).
T6 construct: purchased Eurofins Pharma Discovery (KINOMEscan)
T6 sequence (Q9Y463 whole entry): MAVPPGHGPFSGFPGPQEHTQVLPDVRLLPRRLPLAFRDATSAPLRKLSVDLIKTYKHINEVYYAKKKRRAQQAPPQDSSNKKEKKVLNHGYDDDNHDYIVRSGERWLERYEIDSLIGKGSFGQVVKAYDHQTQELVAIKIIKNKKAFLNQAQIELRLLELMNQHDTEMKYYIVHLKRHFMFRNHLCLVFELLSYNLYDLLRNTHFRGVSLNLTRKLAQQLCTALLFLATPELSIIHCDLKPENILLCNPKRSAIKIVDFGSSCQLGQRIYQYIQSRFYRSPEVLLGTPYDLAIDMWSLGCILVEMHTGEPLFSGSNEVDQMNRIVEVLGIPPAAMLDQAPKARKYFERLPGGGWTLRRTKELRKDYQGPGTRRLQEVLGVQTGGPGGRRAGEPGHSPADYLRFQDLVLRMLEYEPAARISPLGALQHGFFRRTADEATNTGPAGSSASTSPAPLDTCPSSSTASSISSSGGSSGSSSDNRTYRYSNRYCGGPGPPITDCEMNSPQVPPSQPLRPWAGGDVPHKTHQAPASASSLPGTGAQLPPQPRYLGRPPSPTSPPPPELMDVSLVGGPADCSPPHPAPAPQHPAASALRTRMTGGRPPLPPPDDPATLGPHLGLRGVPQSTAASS
Briefly: KINOMEscan. It counts as binding. To be noted: DYRK1B; N.B.: no binding at concentrations up to 30 µM. Here is the method: as §1

The target in data set [10] is T7, IRAK1 (Homo sapiens, UniProt P51617).
T7 construct: purchased Eurofins Pharma Discovery (KINOMEscan)
T7 sequence (P51617 whole entry): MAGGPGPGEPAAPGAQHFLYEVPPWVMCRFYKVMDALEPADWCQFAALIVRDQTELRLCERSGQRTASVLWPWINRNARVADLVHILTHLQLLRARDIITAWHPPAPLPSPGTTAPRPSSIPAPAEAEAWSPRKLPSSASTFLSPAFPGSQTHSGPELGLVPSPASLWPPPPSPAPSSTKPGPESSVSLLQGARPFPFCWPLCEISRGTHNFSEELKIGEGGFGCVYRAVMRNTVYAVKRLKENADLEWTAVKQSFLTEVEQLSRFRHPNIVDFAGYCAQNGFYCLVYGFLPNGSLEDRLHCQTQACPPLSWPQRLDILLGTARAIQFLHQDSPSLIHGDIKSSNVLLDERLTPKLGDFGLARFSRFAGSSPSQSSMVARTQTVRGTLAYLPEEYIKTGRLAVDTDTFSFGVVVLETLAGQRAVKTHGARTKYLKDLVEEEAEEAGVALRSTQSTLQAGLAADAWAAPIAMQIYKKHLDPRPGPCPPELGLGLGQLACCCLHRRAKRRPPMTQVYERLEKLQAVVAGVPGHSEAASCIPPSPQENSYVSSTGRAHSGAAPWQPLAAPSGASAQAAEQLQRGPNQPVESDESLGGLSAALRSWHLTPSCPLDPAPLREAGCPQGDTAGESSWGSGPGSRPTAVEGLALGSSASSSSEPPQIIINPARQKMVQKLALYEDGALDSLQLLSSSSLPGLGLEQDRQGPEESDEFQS
Briefly: KINOMEscan. Conditions: IRAK1; N.B.: no binding at concentrations up to 30 µM. It counts as binding. Here is the method:
as §1

Data set [11] has as its target T8, HASPIN (Homo sapiens, UniProt Q8TF76).
T8 construct: purchased Eurofins Pharma Discovery (KINOMEscan)
T8 sequence (Q8TF76 1-798): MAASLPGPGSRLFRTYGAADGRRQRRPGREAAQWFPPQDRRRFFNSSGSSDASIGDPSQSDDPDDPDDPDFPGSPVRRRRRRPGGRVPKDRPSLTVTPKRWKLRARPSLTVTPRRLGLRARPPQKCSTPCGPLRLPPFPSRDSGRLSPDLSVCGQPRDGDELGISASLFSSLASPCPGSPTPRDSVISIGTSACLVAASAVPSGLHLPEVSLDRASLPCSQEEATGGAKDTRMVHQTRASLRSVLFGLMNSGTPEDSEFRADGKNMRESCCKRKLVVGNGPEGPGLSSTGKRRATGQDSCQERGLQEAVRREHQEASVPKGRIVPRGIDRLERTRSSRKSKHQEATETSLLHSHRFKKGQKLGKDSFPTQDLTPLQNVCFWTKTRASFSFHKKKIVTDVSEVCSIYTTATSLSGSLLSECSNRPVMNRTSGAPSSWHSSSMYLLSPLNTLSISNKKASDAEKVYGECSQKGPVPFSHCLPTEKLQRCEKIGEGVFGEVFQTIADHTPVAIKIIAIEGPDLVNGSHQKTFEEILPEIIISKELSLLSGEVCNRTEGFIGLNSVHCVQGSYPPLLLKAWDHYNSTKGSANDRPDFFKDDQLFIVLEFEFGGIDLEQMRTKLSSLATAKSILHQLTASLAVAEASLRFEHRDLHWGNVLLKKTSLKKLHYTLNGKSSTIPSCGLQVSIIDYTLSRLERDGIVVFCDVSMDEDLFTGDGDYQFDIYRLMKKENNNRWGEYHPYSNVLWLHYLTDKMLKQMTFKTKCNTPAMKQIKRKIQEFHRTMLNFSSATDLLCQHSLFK
Briefly: KINOMEscan. It counts as binding. To be noted: Haspin; N.B.: no binding at concentrations up to 30 µM. Here is the method:
as §1

Data set [12] has as its target T9, HIPK2 (Homo sapiens, UniProt Q9H2X6).
T9 construct: purchased Eurofins Pharma Discovery (KINOMEscan)
Briefly: KINOMEscan. It counts as binding. To be noted: HIPK2; N.B.: no binding at concentrations up to 30 µM. The method, then:
as §1

In data set [13] the target is T10, NEK10 (Homo sapiens, UniProt Q6ZWH5).
T10 construct: purchased Eurofins Pharma Discovery (KINOMEscan)
T10 sequence (Q6ZWH5 1-1172): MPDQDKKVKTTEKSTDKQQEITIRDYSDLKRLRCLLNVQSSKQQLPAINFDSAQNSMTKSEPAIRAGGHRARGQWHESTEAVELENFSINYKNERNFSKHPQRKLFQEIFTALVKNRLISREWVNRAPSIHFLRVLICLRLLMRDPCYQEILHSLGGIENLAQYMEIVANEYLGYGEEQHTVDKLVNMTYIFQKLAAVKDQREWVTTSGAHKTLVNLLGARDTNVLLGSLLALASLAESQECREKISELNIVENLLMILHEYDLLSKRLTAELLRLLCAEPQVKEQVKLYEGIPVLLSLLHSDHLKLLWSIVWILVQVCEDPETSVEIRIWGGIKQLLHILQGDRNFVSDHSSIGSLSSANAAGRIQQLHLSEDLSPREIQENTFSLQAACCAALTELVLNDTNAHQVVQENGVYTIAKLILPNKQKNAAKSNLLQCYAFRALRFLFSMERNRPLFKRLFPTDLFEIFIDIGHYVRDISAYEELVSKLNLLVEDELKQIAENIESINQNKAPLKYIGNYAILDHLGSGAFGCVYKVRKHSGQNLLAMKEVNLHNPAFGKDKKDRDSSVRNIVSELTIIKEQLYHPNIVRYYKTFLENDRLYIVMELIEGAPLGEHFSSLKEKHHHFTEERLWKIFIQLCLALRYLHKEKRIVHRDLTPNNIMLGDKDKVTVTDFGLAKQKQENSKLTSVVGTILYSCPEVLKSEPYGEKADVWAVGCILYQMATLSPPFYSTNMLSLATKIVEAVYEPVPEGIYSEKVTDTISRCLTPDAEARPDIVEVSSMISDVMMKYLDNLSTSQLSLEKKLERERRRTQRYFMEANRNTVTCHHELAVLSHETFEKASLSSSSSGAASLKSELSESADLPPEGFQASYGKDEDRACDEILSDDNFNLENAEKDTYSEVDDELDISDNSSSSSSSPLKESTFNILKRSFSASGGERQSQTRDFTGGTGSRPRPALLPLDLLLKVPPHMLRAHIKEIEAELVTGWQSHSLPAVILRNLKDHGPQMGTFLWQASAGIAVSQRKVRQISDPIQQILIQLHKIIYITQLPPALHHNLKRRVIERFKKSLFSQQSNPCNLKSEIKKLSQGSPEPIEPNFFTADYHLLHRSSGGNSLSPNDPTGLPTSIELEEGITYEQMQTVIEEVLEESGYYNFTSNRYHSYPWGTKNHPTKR
Briefly: KINOMEscan. It counts as binding. To be noted: NEK10; N.B.: no binding at concentrations up to 30 µM. Here is the method:
as §1

For data set [14], the target named is T11, PIM1 (Homo sapiens, UniProt P11309).
T11 construct: purchased Eurofins Pharma Discovery (KINOMEscan)
Briefly: KINOMEscan. It counts as binding. To be noted: PIM1; N.B.: no binding at concentrations up to 30 µM. Here is the method:
as §1

Data set [15] addresses T12, HIPK3 (Homo sapiens, UniProt Q9H422).
T12 construct: purchased Eurofins Pharma Discovery (KINOMEscan)
Briefly: KINOMEscan. It counts as binding. Conditions: HIPK3; N.B.: no binding at concentrations up to 30 µM. Here is the method:
as §1

The subject of data set [16] is THP-1 Cells. Briefly: Cytotoxicity, CellTiter-Glo. It counts as cell-based, human. To be noted: 24 h incubation; N.T.: no cytotoxicity at concentrations up to 50 µM. Here is the method: (§2) Cytotoxicity was analyzed with a CellTiter-Glo Luminescent Cell Viability Assay Kit from Promega (Madison, WI, USA) according to the manufacturer’s protocol. THP-1Blue cells were treated with varying concentrations of the test compounds (up to 50 µM) and cultivated for 24 h. After treatment, the cells were allowed to equilibrate to room temperature for 30 min, the substrate was added, and the samples were analyzed with a Fluoroscan Ascent FL (Thermo Fisher Scientific, Waltham, MA, USA).
(In general: In ATP-based viability assays light output follows the ATP content of the culture.)

Data set [17] in a line: Cytotoxicity, CellTiter-Glo. It counts as cell-based, human. Conditions: human, THP-1Blue cells; 24 h incubation; N.T.: no cytotoxicity at concentrations up to 50 µM. The method, then: as §2
For data set [18], the system named is kinases. Briefly: Published kinase profile of SP600125, selectivity score. It counts as binding. To be noted: from published kinase profile; 39/119.

SMILES strings stand for the structures.

T9 sequence (Q9H2X6 whole entry): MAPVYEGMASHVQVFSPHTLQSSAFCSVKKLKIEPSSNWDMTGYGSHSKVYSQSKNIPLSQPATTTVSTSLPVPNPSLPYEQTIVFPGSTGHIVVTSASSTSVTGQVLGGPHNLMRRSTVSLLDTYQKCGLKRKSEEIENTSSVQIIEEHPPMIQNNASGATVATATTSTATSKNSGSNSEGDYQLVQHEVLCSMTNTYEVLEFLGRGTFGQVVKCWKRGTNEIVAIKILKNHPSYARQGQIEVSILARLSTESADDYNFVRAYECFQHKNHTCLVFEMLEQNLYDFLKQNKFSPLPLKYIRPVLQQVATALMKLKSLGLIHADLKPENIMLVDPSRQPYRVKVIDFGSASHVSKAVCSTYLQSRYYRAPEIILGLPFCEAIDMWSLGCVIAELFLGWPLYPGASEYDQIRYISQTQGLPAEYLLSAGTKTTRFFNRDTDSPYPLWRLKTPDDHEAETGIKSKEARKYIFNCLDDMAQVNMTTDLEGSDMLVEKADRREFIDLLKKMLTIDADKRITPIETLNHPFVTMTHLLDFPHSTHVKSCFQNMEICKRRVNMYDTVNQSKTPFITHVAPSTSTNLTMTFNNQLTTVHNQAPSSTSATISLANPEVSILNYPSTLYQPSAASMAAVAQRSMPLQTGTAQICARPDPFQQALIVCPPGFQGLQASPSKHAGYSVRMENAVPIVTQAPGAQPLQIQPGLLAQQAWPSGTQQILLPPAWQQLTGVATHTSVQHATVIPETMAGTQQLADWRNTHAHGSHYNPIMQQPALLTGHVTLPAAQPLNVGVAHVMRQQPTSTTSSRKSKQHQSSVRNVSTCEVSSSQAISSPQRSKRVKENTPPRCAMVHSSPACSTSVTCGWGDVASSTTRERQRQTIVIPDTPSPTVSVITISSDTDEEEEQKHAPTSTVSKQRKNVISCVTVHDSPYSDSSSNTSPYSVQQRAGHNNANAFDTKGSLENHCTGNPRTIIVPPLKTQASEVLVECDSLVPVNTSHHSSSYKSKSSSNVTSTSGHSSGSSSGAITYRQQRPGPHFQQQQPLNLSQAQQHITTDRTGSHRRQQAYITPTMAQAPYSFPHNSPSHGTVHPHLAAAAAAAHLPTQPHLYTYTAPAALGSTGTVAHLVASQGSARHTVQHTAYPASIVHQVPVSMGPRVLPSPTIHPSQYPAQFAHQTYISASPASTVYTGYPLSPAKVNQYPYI

`CON=C1C(=O)Nc2c1ccc1c2CCCC1` [Compound 5b, 3-(Methoxyimino)-1,3,6,7,8,9-hexahydro-2H-benzo[g]indol-2-one]: the “inhibition of secretion of IL-1α, IL-1β, IL-6, TNF and MCP-1” value in [1] is recorded as “ineffective”.

For the compound `CON=C1C(=O)Nc2c1cc([N+](=O)[O-])c1c2CCCC1` [Compound 5e, 3-(Methoxyimino)-5-nitro-1,3,6,7,8,9-hexahydro-2H-benzo[g]indol-2-one], the “inhibition of secretion of IL-1α, IL-1β, IL-6, TNF and MCP-1” value in data set [1] is “ineffective”.

As a reminder, the IC50 is the concentration needed to halve the response being measured. Read a low IC50 as greater potency. As usually defined, the Kd is the constant that tells how readily two partners part at equilibrium. Turning to `CCN1CCc2c(-c3ccccc3)cc3c(c2C1)NC(=O)C3=NO` [NS-383, 8-ethyl-6,7,8,9-tetrahydro-5-phenyl-1H-pyrrolo[3,2-h]isoquinolin-2,3-dione-3-oxime, reference compound], the concentration for half-maximal inhibition (IC50) at 24 h was 21.2 ± 2.4 µM in data set [2] and 19.2 ± 2.1 µM in [17]. For the same compound, the “Cytotoxicity (MonoMac-6 Cells) IC50 (µM)” value in data set [3] is “cytotoxic”. Further, the “Kd (µM)” value in [4], in data set [5], in [6], in data set [7], in [8] and in [9] was “N.B” each time. Also, the “Kd (µM)” value in data set [10], in data set [11], in [12], in data set [13] and in data set [15] was “N.B” throughout. The Kd in [14] was found to be 14 ± 0.7 µM. In addition, the “Cytotoxicity (THP-1 Cells) IC50 (µM)” value in [16] is “cytotoxic”.

For the compound `Oc1c2ccccc2c2c3c(cccc13)N=N2` [SP600125], the “selectivity score, S(10)” value in data set [18] was 0.328.
